These results are taken from patent US9988420B2, “Cytotoxic peptides and conjugates thereof” (priority 2013, dated 2018).

Each structure is given as a SMILES string. Like-named read-outs stand apart in the source and are kept apart here. Non-standard residues stand in square brackets, D forms with d. Residues, ends and D or L forms follow the SMILES beside them. *: point of attachment. Dolaproine = CO[C@@H]([C@@H]1CCCN1)[C@@H](C)C(=O)O; Dil = CC[C@H](C)[C@H](NC)[C@@H](CC(=O)O)OC; X2 = CN1[C@@H]2CC[C@@H](C2)[C@H]1C(=O)*; Phe(ol) = N[C@H](CO)Cc1ccccc1

One series deals with JimT1 cells. Briefly: In vitro cell killing assay of payloads (cell proliferation, Cell-Titer-Glo). The following applies: Homo sapiens, JIMT-1, 120 h, JimT1 cells, Cell-Titer-Glo after five days, read-out: In vitro cell killing (IC50 (nM)) JimT1. It is filed as cell-based.
Another series deals with H526 cells. Described as above. It is filed as cell-based. The following applies: Homo sapiens, 120 h, NCI-H526 cells, Cell-Titer-Glo after five days, read-out: In vitro cell killing (IC50 (nM)) NCI-H526.
A further series deals with CMK11-5 cells. The series is described as above. It is filed as cell-based. The following applies: Homo sapiens, 120 h; CMK-11-5 cells; Cell-Titer-Glo after five days.
The test system of the next series is MDA-MB231 clone 40 cells. The description is as above. It is filed as cell-based. As to conditions: Homo sapiens, 120 h; MDA-MB-231 clone 40 cells; Cell-Titer-Glo after five days.
The next series deals with Jurkat cells. The description is as above. As to conditions: Homo sapiens, 120 h, Cell-Titer-Glo after five days. It is filed as cell-based.
The subject of another series is HCC1954 cells. Described as above. It is filed as cell-based. As to conditions: Homo sapiens, 120 h, HCC1954 cells, Cell-Titer-Glo after five days, read-out: In vitro cell killing (IC50 (nM)) HCC1954.
The next series has as its system MDA-MB231 clone 16 cells. The series is described as above. It is filed as cell-based. As to conditions: Homo sapiens, 120 h; MDA-MB-231 clone 16 cells; Cell-Titer-Glo after five days.
The test system of the next series is KU812 cells. The series is described as above. It is filed as cell-based. As to conditions: Homo sapiens, 120 h, Cell-Titer-Glo after five days.
The conditions of series [1]: acidic condition.
The test system of another series is A375 cells. Briefly: In vitro cell killing assay of payloads (cell proliferation, Cell-Titer-Glo). As to conditions: Homo sapiens, A-375, 120 h, Cell-Titer-Glo after five days. It is filed as cell-based. As for the experimental part: (§1) For evaluation of the cell killing potency of the cytotoxic peptides of Formula (I) in vitro, cell proliferation assays were performed in parallel with 8 cell lines: MDA-MB231 clone 16, clone 40, JimT1, HCC1954, H526, KU812, CMK11-5 cells and Jurkat cells. In addition, in vitro, cell proliferation assays were performed using 3 other cell lines: A375, SKBR3 and NCI-N87. All the cell lines are described in more detail in Example 106 and were also used to assess the in vitro potency of immunoconjugates of the invention. The cell proliferation assays were conducted with Cell-Titer-Glo™ (Promega) five days after cells were incubated with various concentrations of ADCs (Riss et al., (2004) Assay Drug Dev Technol. 2:51-62).

A further series deals with SKBR3 cells. The description is as above. It is filed as cell-based. As to conditions: Homo sapiens, SK-BR-3, 120 h, Cell-Titer-Glo after five days. As for the experimental part: as §1
Another series relates to NCI-N87 cells. Described as above. It is filed as cell-based. As to conditions: Homo sapiens, 120 h, Cell-Titer-Glo after five days. As for the experimental part: as §1

A word on the IC50: it is the concentration that gives 50% inhibition. For `CC[C@H](C)[C@@H]([C@@H](CC(=O)N1CCC[C@H]1[C@H](OC)[C@@H](C)C(=O)N[C@@H](Cc1ccccc1)C(=O)NS(=O)(=O)CCCN=[N+]=[N-])OC)N(C)C(=O)[C@@H](NC(=O)[C@@H]1[C@H]2CC[C@H](C2)N1C)C(C)C` [Compound 46, (1R,3S,4S)-N-((S)-1-(((3R,4S,5S)-1-((S)-2-((1R,2R)-3-(((S)-N-1-(3-Azidopropylsulfonamido)-1-oxo-3-phenylpropan-2-yl)amino)-1-methoxy-2-methyl-3-oxopropyl)pyrrolidin-1-yl)-3-methoxy-5-methyl-1-oxoheptan-4-yl)(methyl)amino)-3-methyl-1-oxobutan-2-yl)-2-methyl-2-azabicyclo[2.2.1]heptane-3-carboxamide], the half-maximal inhibitory concentration (IC50) in the series on JimT1 cells (Table 2a) amounted to 14.2 nM; in the series on H526 cells (Table 2a) it was 29.5 nM; in the series on CMK11-5 cells it was 10.4 nM; in the series on MDA-MB231 clone 40 cells, 11.7 nM; in the series with Jurkat cells it was 6.1 nM; in the series on HCC1954 cells (Table 2a) it was 2.3 nM. The half-maximal inhibitory concentration (IC50) with MDA-MB231 clone 16 cells was determined as 8.1 nM; with KU812 cells it was 8.4 nM.
With `CCCCOP(=O)(O)[C@H](Cc1ccccc1)NC(=O)[C@H](C)[C@@H](OC)[C@@H]1CCCN1C(=O)C[C@@H](OC)[C@H]([C@@H](C)CC)N(C)C(=O)[C@@H](NC(=O)[C@@H]1[C@H]2CC[C@H](C2)N1C(=O)CCCCCN1C(=O)C=CC1=O)C(C)C` [Compound 29, Butyl hydrogen ((R)-1-((2R,3R)-3-((S)-1-((3R,4S,5S)-4-((S)-2-((1R,3S,4S)-2-(6-(2,5-dioxo-2,5-dihydro-1H-pyrrol-1-yl)hexanoyl)-2-azabicyclo[2.2.1]heptane-3-carboxamido)-N,3-dimethylbutanamido)-3-methoxy-5-methylheptanoyl)pyrrolidin-2-yl)-3-methoxy-2-methylpropanamido)-2-phenylethyl)phosphonate], the “hydrolysis of the ester” value in series [1] is given as “prone to hydrolysis in acidic condition”.
Take `CC[C@H](C)[C@@H]([C@@H](CC(=O)N1CCC[C@H]1[C@H](OC)[C@@H](C)C(=O)N[C@@H](Cc1ccccc1)CS(N)(=O)=O)OC)N(C)C(=O)[C@@H](NC(=O)[C@@H]1[C@H]2CC[C@H](C2)N1C)C(C)C` [Compound 55, (1R,3S,4S)-N-((S)-1-(((3R,4S,5S)-3-methoxy-1-((S)-2-((1R,2R)-1-methoxy-2-methyl-3-oxo-3-(((S)-1-phenyl-3-sulfamoylpropan-2-yl)amino)propyl)pyrrolidin-1-yl)-5-methyl-1-oxoheptan-4-yl)(methyl)amino)-3-methyl-1-oxobutan-2-yl)-2-methyl-2-azabicyclo[2.2.1]heptane-3-carboxamide]: the 50% inhibitory concentration (IC50) was found to be 2.75 nM in the series on A375 cells; 0.21 nM in the series with SKBR3 cells; 0.643 nM in the series with NCI-N87 cells; 0.751 nM in the series with JimT1 cells (Table 2b); 0.364 nM in the series on H526 cells (Table 2b); 0.124 nM in the series on HCC1954 cells (Table 2b).
Regarding `CC[C@H](C)[C@@H]([C@@H](CC(=O)N1CCC[C@H]1[C@H](OC)[C@@H](C)C(=O)N[C@H](CO)Cc1ccccc1)OC)N(C)C(=O)[C@@H](NC(=O)[C@@H]1[C@H]2CC[C@H](C2)N1C)C(C)C` [Compound 51, (1R,3S,4S)-N-((S)-1-(((3R,4S,5S)-1-((S)-2-((1R,2R)-3-(((S)-1-Hydroxy-3-phenylpropan-2-yl)amino)-1-methoxy-2-methyl-3-oxopropyl)pyrrolidin-1-yl)-3-methoxy-5-methyl-1-oxoheptan-4-yl)(methyl)amino)-3-methyl-1-oxobutan-2-yl)-2-methyl-2-azabicyclo[2.2.1]heptane-3-carboxamide] (X2-V[Dil][Dolaproine][Phe(ol)]), the IC50 with A375 cells came to 0.154 nM; with SKBR3 cells it was 0.035 nM; in the series on NCI-N87 cells, 0.053 nM; in the series on JimT1 cells (Table 2b), 0.081 nM; with H526 cells (Table 2b), 0.184 nM; in the series on HCC1954 cells (Table 2b), 0.028 nM.
Consider `CC[C@H](C)[C@@H]([C@@H](CC(=O)N1CCC[C@H]1[C@H](OC)[C@@H](C)C(=O)N[C@H](C)[C@@H](O)c1ccccc1)OC)N(C)C(=O)[C@@H](NC(=O)[C@H]1N[C@@H]2CC[C@H]1C2)C(C)C` [Compound 3, (1R,3S,4S)-N-((S)-1-(((3R,4S,5S)-1-((S)-2-((1R,2R)-3-(((1S,2R)-1-Hydroxy-1-phenylpropan-2-yl)amino)-1-methoxy-2-methyl-3-oxopropyl)pyrrolidin-1-yl)-3-methoxy-5-methyl-1-oxoheptan-4-yl)(methyl)amino)-3-methyl-1-oxobutan-2-yl)-2-azabicyclo[2.2.1]heptane-3-carboxamide], for which the IC50 was 42.1 nM in the series with JimT1 cells (Table 2a); 22 nM with H526 cells (Table 2a); 14.7 nM in the series with CMK11-5 cells; 23.9 nM with MDA-MB231 clone 40 cells; 3.01 nM in the series on Jurkat cells; 10.8 nM in the series with HCC1954 cells (Table 2a). The results for the 50% inhibitory concentration (IC50) with MDA-MB231 clone 16 cells and with KU812 cells were 12.7 nM and 6.78 nM, respectively.
